Assay results taken from patent US20260062422A1 (Halda Therapeutics OpCo, Inc., priority 2022, published 2026).

Tests used:
BRD4-BD1 = target: T1, BRD4-BD1 (Homo sapiens, UniProt O60885); test: bromoKdELECT assay for binding affinity to BRD4-BD1; details: Table 6
T1 construct: made in house; host or cells: T7 phage grown in an E. coli host derived from BL21
Protocol: Compounds were tested using a bromoKdELECT assay. T7 phage strains displaying bromodomains were grown in parallel in 24-well blocks in an E. coli host derived from the BL21 strain. E. coli were grown to log-phase and infected with T7 phage from a frozen stock (multiplicity of infection=0.4) and incubated with shaking at 32° C. until lysis (90-150 minutes). The lysates were centrifuged (5,000×g) and filtered (0.2 μm) to remove cell debris. Streptavidin-coated magnetic beads were treated with biotinylated small molecule or acetylated peptide ligands for 30 minutes at room temperature to generate affinity resins for bromodomain assays. The liganded beads were blocked with excess biotin and washed with blocking buffer (SeaBlock (Pierce), 1% BSA, 0.05% Tween 20, 1 mM DTT) to remove unbound ligand and to reduce nonspecific phage binding. Binding reactions were assembled by combining bromodomains, liganded affinity beads, and test compounds in 1× binding buffer (17% SeaBlock, 0.33×PBS, 0.04% Tween 20, 0.02% BSA, 0.004% Sodium azide, 7.4 mM DTT). Test compounds were prepared as 1000× stocks in 100% DMSO. Kds were determined using an 11-point 3-fold compound dilution series with one DMSO control point. All compounds for Kd measurements are distributed by acoustic transfer (non-contact dispensing) in 100% DMSO. The compounds were then diluted directly into the assays such that the final concentration of DMSO was 0.09%. All reactions performed in polypropylene 384-well plates. Each was a final volume of 0.02 ml. The assay plates were incubated at room temperature with shaking for 1 hour and the affinity beads were washed with wash buffer (1×PBS, 0.05% Tween 20). The beads were then resuspended in elution buffer (1×PBS, 0.05% Tween […] non-biotinylated affinity ligand) and incubated at room temperature with shaking for 30 minutes. The bromodomain concentration in the eluates was measured by qPCR.

[1] = system: T-Rex 293 cell line SC cells lacking increased expression of progesterone receptor isoform B protein; test: Cellular growth inhibition, T-Rex 293 SC cells without doxycycline, Example 45; assay type: cell-based; details: T-Rex 293 SC cells not exposed to doxycycline, 72 hours treatment, CellTiter-Glo 2.0
Protocol: (§1) The following types of cells were prepared for this experiment: (i) a T-Rex 293 cell line having increased expression of progesterone receptor isoform B protein due to exposure to doxycycline and (ii) a T-Rex 293 cell line lacking increased expression of progesterone receptor isoform B protein. Ability of the test compounds to inhibit proliferation of the foregoing cell types was evaluated according to the procedures set forth below.
(§2) The doxycycline-inducible progesterone receptor isoform B protein expressing cell line was established using the following protocol: T-Rex 293 cells were purchased from Invitrogen (Cat #R71007) and transfected using Lipofectamine 2000 with the wild-type progesterone receptor B protein sequence cloned into the pcDNA4/TO vector. Transfected cells were selected using 400 μg/mL Zeocin (Invitrogen Cat #R25001). Following selection, single clones were raised and maintained in Dulbecco's Modified Eagle Medium (DMEM) supplemented with 10% w/w Tetracycline-free fetal bovine serum (FBS) and 250 μg/mL Zeocin. Clones were analyzed for expression of progesterone receptor isoform B protein in the presence and absence of 10 ng/mL doxycycline (Sigma Cat #D9891), and a single doxycycline-inducible clone (hereinafter “SC”) was selected for use in downstream assays.
(§3) The SC cells were seeded on poly-D-lysine coated, black clear-bottom 384-well plates at 2500/well, in 25 μL Phenol Red Free Dulbecco's Modified Eagle Medium (DMEM) supplemented with 10% w/w charcoal-dextran treated fetal bovine serum (FBS) and 1% w/w pen-strep, with or without 10 ng/mL doxycycline. Pen-Strep is a commercially available mixture of penicillin G and streptomycin, which is used in mammalian cell culture media to prevent bacterial contamination. Phenol Red Free Dulbecco's Modified Eagle Medium (DMEM) supplemented with 10% w/w charcoal-dextran treated fetal bovine serum (FBS) and 1% w/w pen-strep, with or without 10 ng/mL doxycycline is herein referred to as Treatment Medium. Following seeding of cells in the plates, the plates were spun at 300×g for 30 seconds, then equilibrated to room temperature for 30 minutes, and then deposited in a humidified tissue culture incubator maintained at 37° C. with 5% CO2.
(§4) At 24 hours after seeding of the cells, dilutions of test compound were prepared in DMSO and dissolved in Treatment Medium, to achieve a final DMSO concentration of 0.5% w/w, thereby providing the Test Compound Solution. A 25 μL aliquot of the Test Compound Solution was added to cells in the well plates. An equal volume of a solution containing DMSO and Treatment Medium was used as a negative control. Following treatment of cells with Test Compound Solution or said equal volume of a solution containing DMSO and Treatment Medium, the plates were spun at 300×g for 30 seconds, and then left in an incubator for 72 hours.
(§5) At the end of the treatment duration, cell viability was quantified with CellTiter-Glo 2.0 reagent (Promega Cat #G9243). For this purpose, plates were equilibrated to room temperature for 30 minutes, and then 25 μL of CellTiter-Glo 2.0 reagent was added to cells in the plate wells. Plates were then agitated on a shaker for two minutes at 500 rpm and subsequently incubated at room temperature for 10 minutes. Following incubation, the plates were spun at 3000×g for 30 seconds, then sealed with an optical adhesive cover, and luminescence readings were measured with an EnVision Plate Reader (Perkin Elmer).
(§6) Data was normalized using zero luminescence for baseline. A four-parameter non-linear regression curve fit was applied to dose-response data in GraphPad Prism data analysis software to determine the half-maximal growth inhibitory concentration (GI50) for each test compound.

[2] = Cellular growth inhibition, T-Rex 293 SC cells with doxycycline (progesterone receptor isoform B induced), Example 45; assay type: cell-based; details: progesterone receptor isoform B induced with 10 ng/mL doxycycline, 72 hours, CellTiter-Glo 2.0, Table 11
Protocol: as §1, §2, §3, §4, §5, §6

Kd (BRD4-BD1)	Structure (SMILES)	GI50 [1]	GI50 [2]
> 2500 nM	Cc1sc2c(c1C)C(c1ccc(Cl)cc1)=N[C@H](CC(=O)NCCOCCOCCOCCOCCN(C)c1ncc(C(=O)N[C@H]3C(C)(C)[C@H](Oc4ccc(C#N)c(Cl)c4)C3(C)C)cn1)c1nnc(C)n1-2 [Compound I-19]		
50 to 500 nM	CCNC(=O)C[C@@H]1N=C(c2ccc(N(C)CC3CN(c4ncc(C(=O)N[C@H]5C(C)(C)[C@H](Oc6ccc(C#N)c(Cl)c6)C5(C)C)cn4)C3)cc2)c2c(sc(C)c2C)-n2c(C)nnc21 [Compound I-107]		
50 to 500 nM	CCNC(=O)C[C@@H]1N=C(c2ccc(N3CCC(OC4CCN(c5ncc(C(=O)N[C@H]6C(C)(C)[C@H](Oc7ccc(C#N)c(Cl)c7)C6(C)C)cn5)CC4)CC3)cc2)c2c(sc(C)c2C)-n2c(C)nnc21 [Compound I-114]		
500 to 2500 nM	CCNC(=O)C[C@@H]1N=C(c2ccc(OCCOC3CCN(c4ncc(C(=O)N[C@H]5C(C)(C)[C@H](Oc6ccc(C#N)c(Cl)c6)C5(C)C)cn4)CC3)c(F)c2)c2c(sc(C)c2C)-n2c(C)nnc21 [Compound I-76]		
500 to 2500 nM	Cc1sc2c(c1C)C(c1ccc(CCCOC3CCN(c4ncc(C(=O)N[C@H]5C(C)(C)[C@H](Oc6ccc(C#N)c(Cl)c6)C5(C)C)cn4)CC3)cc1)=N[C@@H](CC(=O)NC1CC1)c1nnc(C)n1-2 [Compound I-102]		
> 2500 nM	CCNC(=O)C[C@@H]1N=C(c2ccc(CCCC3CCN(c4ncc(C(=O)N[C@H]5C(C)(C)[C@H](Oc6ccc(C#N)c(Cl)c6)C5(C)C)cn4)CC3)cc2)c2c(sc(C)c2C)-n2c(C)nnc21 [Compound I-95]		
500 to 2500 nM	Cc1sc2c(c1C)C(c1ccc(Cl)cc1)=N[C@@H](CC(=O)NCCOCCOCCOCCOC1CCN(c3ncc(C(=O)N[C@H]4C(C)(C)[C@H](Oc5ccc(C#N)c(Cl)c5)C4(C)C)cn3)CC1)c1nnc(C)n1-2 [Compound I-11]		
	Cc1sc2c(c1C)C(c1ccc(O[C@H]3CC[C@@]4(CCCN(c5ncc(C(=O)N[C@H]6C(C)(C)[C@H](Oc7ccc(C#N)c(Cl)c7)C6(C)C)cn5)C4)CC3)cc1)=N[C@@H](Cc1ncco1)c1nnc(C)n1-2 [Compound I-172]	500 to 1500 nM	< 500 nM
	Cc1sc2c(c1C)C(c1ccc(N3CC(C4CCN(c5ncc(C(=O)N[C@H]6C(C)(C)[C@H](Oc7ccc(C#N)c(Cl)c7)C6(C)C)cn5)CC4)C3)cc1)=NC(Cc1ncco1)c1nnc(C)n1-2 (some centres unmarked) [Compound I-209]	500 to 1500 nM	< 500 nM
	CCNC(=O)C[C@@H]1N=C(c2ccc(Oc3ncc(C(=O)N[C@H]4C(C)(C)[C@H](Oc5ccc(C#N)c(Cl)c5)C4(C)C)cn3)cc2)c2c(sc(C)c2C)-n2c(C)nnc21 [Compound I-84]	500 to 1500 nM	< 500 nM
	CCNC(=O)C[C@@H]1N=C(c2ccc(N(C3CC3)C3CN(CC4CCN(c5ncc(C(=O)N[C@H]6C(C)(C)[C@H](Oc7ccc(C#N)c(Cl)c7)C6(C)C)cn5)CC4)C3)cc2)c2c(sc(C)c2C)-n2c(C)nnc21 [Compound I-129]	500 to 1500 nM	< 500 nM
	CCNC(=O)C[C@@H]1N=C(c2ccc(OC3CCN(c4ncc(C(=O)N[C@H]5C(C)(C)[C@H](Oc6ccc(C#N)c(Cl)c6)C5(C)C)cn4)CC3)cc2)c2c(sc(C)c2C)-n2c(C)nnc21 [Compound I-61]	500 to 1500 nM	< 500 nM
	Cc1sc2c(c1C)C(c1ccc(OC3CC4(CCN(c5ncc(C(=O)N[C@H]6C(C)(C)[C@H](Oc7ccc(C#N)c(Cl)c7)C6(C)C)cn5)CC4)C3)cc1)=N[C@@H](Cc1ncco1)c1nnc(C)n1-2 [Compound I-49, N-[3-(3-chloro-4-cyano-phenoxy)-2,2,4,4-tetramethyl-cyclobutyl]-2-[2-[4-[(9S)-4,5,13-trimethyl-9-(oxazol-2-ylmethyl)-3-thia-1,8,11,12-tetrazatricyclo[8.3.0.02,6]trideca-2(6),4,7,10,12-pentaen-7-yl]phenoxy]-7-azaspiro[3.5]nonan-7-yl]pyrimidine-5-carboxamide]	500 to 1500 nM	< 500 nM
	CCNC(=O)C[C@@H]1N=C(c2ccc(OCCCC#Cc3ncc(C(=O)N[C@H]4C(C)(C)[C@H](Oc5ccc(C#N)c(Cl)c5)C4(C)C)cn3)cc2)c2c(sc(C)c2C)-n2c(C)nnc21 [Compound I-83]	500 to 1500 nM	< 500 nM
	CCNC(=O)C[C@@H]1N=C(c2cccc(OCCOC3CCN(c4ncc(C(=O)N[C@H]5C(C)(C)[C@H](Oc6ccc(C#N)c(Cl)c6)C5(C)C)cn4)CC3)c2)c2c(sc(C)c2C)-n2c(C)nnc21 [Compound I-46, N-((1r,3r)-3-(3-chloro-4-cyanophenoxy)-2,2,4,4-tetramethylcyclobutyl)-2-(4-(2-(3-((S)-6-(2-(ethylamino)-2-oxoethyl)-2,3,9-trimethyl-6H-thieno[3,2-f][1,2,4]triazolo[4,3-a][1,4]diazepin-4-yl)phenoxy)ethoxy)piperidin-1-yl)pyrimidine-5-carboxamide]	500 to 1500 nM	< 500 nM
	CCNC(=O)C[C@@H]1N=C(c2ccc(OC3CCN(C4CCN(c5ncc(C(=O)N[C@H]6C(C)(C)[C@H](Oc7ccc(C#N)c(Cl)c7)C6(C)C)cn5)CC4)C3)cc2)c2c(sc(C)c2C)-n2c(C)nnc21 (some centres unmarked) [Compound I-85]	500 to 1500 nM	< 500 nM
	Cc1sc2c(c1C)C(c1ccc(Cl)cc1)=N[C@@H](CC(=O)NCCOCCOCCOCCOCCOCCOCCN(C)c1ncc(C(=O)N[C@H]3C(C)(C)[C@H](Oc4ccc(C#N)c(Cl)c4)C3(C)C)cn1)c1nnc(C)n1-2 [Compound I-4]	1500 to 3000 nM	< 500 nM
	Cc1sc2c(c1C)C(c1ccc(C[C@H]3C[C@@H]([C@@H]4CCCN(c5ncc(C(=O)N[C@H]6C(C)(C)[C@H](Oc7ccc(C#N)c(Cl)c7)C6(C)C)cn5)C4)C3)cc1)=N[C@@H](Cc1ncco1)c1nnc(C)n1-2 [Compound I-161]	> 3000 nM	< 500 nM
	Cc1sc2c(c1C)C(c1ccc(N3CC(C4CCN(c5ncc(C(=O)N[C@H]6C(C)(C)[C@H](Oc7ccc(C#N)c(Cl)c7)C6(C)C)cn5)CC4)C3)cc1)=N[C@@H](C)c1nnc(C)n1-2 [Compound I-271]	500 to 1500 nM	< 500 nM
	Cc1sc2c(c1C)C(c1ccc(N3CC(CC4CCN(c5ncc(C(=O)N[C@H]6C(C)(C)[C@H](Oc7ccc(C#N)c(Cl)c7)C6(C)C)cn5)CC4)C3)cc1)=N[C@@H](C)c1nnc(C)n1-2 [Compound I-270]	500 to 1500 nM	< 500 nM
	Cc1sc2c(c1C)C(c1ccc(CCC3CC4(CCCN(c5ncc(C(=O)N[C@H]6C(C)(C)[C@H](Oc7ccc(C#N)c(Cl)c7)C6(C)C)cn5)C4)C3)cc1)=N[C@@H](Cc1ncco1)c1nnc(C)n1-2 [Compound I-241]	500 to 1500 nM	< 500 nM
